Data reported in US9107814B2, “Micelle composition of polymer and passenger drug” (Wisconsin Alumni Research Foundation, priority 2005, dated 2015).
≈ marks a conversion by molar mass, not a printed value. Like-named read-outs stand apart in the source and are kept apart here.

Tests used:
[1] = geldanamycin prodrug loading into and release from PEG-b-PCL micelles; assay type: physicochemical; conditions: for Diff Coef: 0.5 mM PEG-b-PCL (5000:10000 Da) micelles, pH 7.4 phosphate buffer, 37° C., 10000MWCO dialysis; for w/w drug/carrier / Conc: 0.5 mM PEG-b-PCL micelles; for w/w drug/carrier: target 25% wt loading; for Conc: target […]; for time after which almost/substantially all the drug is released: prodrug loaded micelles; for fraction released: prodrug in micelles
Description: Drug diffusion was calculated as described in Forrest and Kwon, 2005 (Journal of Controlled Release).
PEG-PCL micelles are prepared by the drop-wise addition of geldanamycin prodrug and PEG-PCL dissolved in a miscible solvent, acetone, to vigorously stirred water, followed by removal of the solvent by N2 purge, and 0.2-μm filtration. Alternatively, the solution may be centrifuged to remove unincorporated and aggregated drug. The final solvent to water ratio is between about 0.1 and about 5, preferably between about 0.5 and about 4, and more preferably about 2. The micelle solution should be delivered at a rate of between about 2 s/drop and about 60 s/drop, preferably between about 5 s/drop and about 30 s/drop, and more preferably between about 10 s/drop and about 20 s/drop.

[2] = octanol-water partition coefficient by microemulsion electrokinetic chromatography (MEEKC); conditions: for log Po/w: pH 7.00 running buffer, ± standard deviation (n = 3)
Description: (§1) The octanol-water partition coefficient of geldanamycin was determined by microemulsion electrokinetic chromatography.
(§2) Running buffer was prepared by titration of 25-mM sodium phosphate monobasic with 50-mM sodium tetraborate to pH 7.00, and 1.44 g of sodium dodecyl sulfate, 6.49 g of 1-butanol, and 0.82 g of heptane were made up to 100 ml with phosphate-borate buffer. The running buffer was ultrasonicated for 30 min in a closed 250-ml flask in ice water (G112SP1 Special Ultrasonic Cleaner, Laboratory Supplies Company Inc., Hicksville, N.Y.). […] Compounds and standards (n=3) were dissolved in the running buffer (0.05 mg/ml) with 0.5 μL/ml of nitromethane and 0.5 μL/ml of 1-phenyldodecane by ultrasonication (10 min) in a closed tube and centrifuged (16000×g, 3 min) to degas. A BioFocus 3000 capillary electrophoresis system (Bio-Rad, Hercules, Calif.) equipped with a 50-μm ID×37-cm uncoated fused-silica column (Polymicron Technologies LLC, Phoenix, Ariz.) was used for MEEKC experiments. The column was prewashed with 1-M NaOH for 5 min and before runs with 0.1-M NaOH for 1 min, ddH2O for 1 min, and running buffer for 1 min at 100 psi (690 kPa). Running conditions were 10 kV (ca. 30-35 μA, 30 min/run) at 20° C. with 1-psi·s injections (6.9 kPa·s) and detection at 210 and 232 nm. Log Po/w and retention factors, k′, were calculated using the equations:
(§3) [formula] [formula] where tr, t0, and tme are retention times of the prodrug, nitromethane, and 1-phenyldodecane, respectively. Fitting parameters a and b were determined by linear regression of known standards: pyridine, phenol, benzoic acid, anisole, benzene, toluene, dodecanoic acid, benzopyrene, and pyrene (R^2=0.996, Excel® 2003, Microsoft Corp.).

[3] = system: MDA-MB-468 breast cancer cell line; assay: MTS cytotoxicity assay; assay type: cell-based; conditions: MDA-MB-468, 4 days, drugs in 1% DMSO
Description: Cytotoxicities of the drugs to the MDA-MB-468 breast cancer cell line (ATCC) were determined. Cells are plated at a density of 3000 cells/well into 96 well plates (100 μl/well DMEM medium). After 24 hours, drugs were added dissolved in 1% DMSO. Cells were incubated with drugs for 4 days and toxicity determined using the MTS cytotoxicity assay according to manufacturer's directions (Promega, Madison, Wis.).

[4] = loading of rapamycin and geldanamycin into PEG-DSPE and PEG-PCL micelles; assay type: physicochemical; conditions: micelle solution against water solubility
Description: The final solvent to water ratio is between about 0.1 and about 5, preferably between about 0.5 and about 4, and more preferably about 2. The micelle solution should be delivered at a rate of between about 2 s/drop and about 60 s/drop, preferably between about 5 s/drop and about 30 s/drop, and more preferably between about 10 s/drop and about 20 s/drop.

[5] = cited from earlier work
[6] = preclinical trials; cited from earlier work
[7] = cited from earlier work; remark: listed apart in the source
[8] = paclitaxel prodrug loading and sizing of PEG-b-PCL micelles; assay type: physicochemical; conditions: for Solubilized / prodrug:caprolactone / prodrug w/w %: 20% w/w prodrug loading in 0.5-mM PEG-b-PCL micelles; for Diameter (intensity): DLS, PEG-PCL micelles prepared at 20% w/w drug; for Solubilized (in parentheses): after evaporation to 25% of original volume and refiltration (0.22-μm)
Description: The organic solvent was then removed by stirring under an air purge. Where stated, samples were further concentrated by prolonged evaporation under an air purge. After removing the organic solvent, PEG-b-PCL micelles were passed through a 0.22-μm polyestersulfone filter to remove insoluble material and unincorporated drug. In a typical experiment, […] of PEG-b-PCL was dissolved in 0.75 ml of dry acetone and added dropwise (50 μL/min) to 2 ml of ddH2O yielding 0.5-mM PEG-b-PCL micelles after removing the volatile organic solvent.
The incorporation of prodrugs into PEG-b-PCL micelles was verified by equivalent retention times in UV and RI chromatographs from gel permeation chromatography. PEG-b-PCL micelles were injected on an OHpak SB-806M GPC column (20-μL injections, 0.5-mM PEG-b-PCL, 0.75 ml/min of ddH2O, 10° C.) (Shodex, Kawasaki, Japan) and detected by refractive index (RI) and UV absorbance (232 nm). Prodrug loading into PEG-b-PCL micelles was quantitatively determined by reverse-phase HPLC (Alltech Econosphere 3-μm 4.6×50 mm) using a 0.01% (v/v) trifluoroacetic acid—ACN gradient (40-100% ACN, 50° C., 232-nm detection). Hydrodynamic diameters of PEG-b-PCL micelles were determined by dynamic light scattering (DLS) (NICOMP 380 ZLS, Particle Sizing Systems, Santa Barbara, Calif.). Data were analyzed by intensity-weighted Gaussian distribution fitting (NICOMP version 1.76). Measurements were made for a minimum of 10 min or at least 100×10^5 counts in channel 1.

[9] = cited from earlier work; remark: listed apart in the source

Description for physchem: as §1, §2, §3

## CCCCCCCCCCCCCCCCNC1=C2CC(C)CC(OC)C(O)C(C)C=C(C)C(OC(N)=O)C(OC)C=CC=C(C)C(=O)NC(=CC1=O)C2=O (stereo not shown) [17-amino-hexyldecyl-17-demethoxygeldanamycin]
[1]
  Diff Coef: 1.69 × 10^−20 cm2/s
  w/w drug/carrier: 20 ± 2%
  Conc: 1.5 mg/mL
  time after which almost/substantially all the drug is released: about 12 days
[1]; time 0 days
  fraction released: 0
[1]; time 0.83 days
  fraction released: 0
[1]; time 2 days
  fraction released: 0.1398
[1]; time 4 days
  fraction released: 0.3551
[1]; time 6 days
  fraction released: 0.3985
[1]; time 8 days
  fraction released: 0.6364
[1]; time 10 days
  fraction released: 0.7517
[1]; time 12 days
  fraction released: 0.8238
[2]
  Log Po/w: 4.30

## CCCCCCCCCCCC(=O)OCCNC1=C2CC(C)CC(OC)C(O)C(C)C=C(C)C(OC(N)=O)C(OC)C=CC=C(C)C(=O)NC(=CC1=O)C2=O (stereo not shown) [17-aminoethyl-dodeconate-17-demethoxygeldanamycin]
[1]
  Diff Coef: 2.55 × 10^−20 cm2/s
  w/w drug/carrier: 21 ± 2%
  Conc: 1.6 mg/mL
  time after which almost/substantially all the drug is released: about 8 days
[1]; time 0 days
  fraction released: 0
[1]; time 0.83 days
  fraction released: 0.1688
[1]; time 2 days
  fraction released: 0.2909
[1]; time 4 days
  fraction released: 0.3431
[1]; time 6 days
  fraction released: 0.8531
[1]; time 8 days
  fraction released: 0.9878
[2]
  Log Po/w: 4.16

## CCCCCC(=O)OCCNC1=C2CC(C)CC(OC)C(O)C(C)C=C(C)C(OC(N)=O)C(OC)C=CC=C(C)C(=O)NC(=CC1=O)C2=O (stereo not shown) [17-aminoethyl-hexonate-17-demethoxygeldanamycin]
[3]
  IC50: 240 nM

## CCCCCCCCCCCCCCCC(=O)OCCNC1=C2CC(C)CC(OC)C(O)C(C)C=C(C)C(OC(N)=O)C(OC)C=CC=C(C)C(=O)NC(=CC1=O)C2=O (stereo not shown) [17-aminoethyl-palmitate-17-demethoxygeldanamycin]
[3]
  IC50: 350 nM
[1]
  Diff Coef: 3.61 × 10^−20 cm2/s
  w/w drug/carrier: 22 ± 5%
  Conc: 1.7 mg/mL
  time after which almost/substantially all the drug is released: about 8 days
[1]; time 0 days
  fraction released: 0
[1]; time 0.83 days
  fraction released: 0.1695
[1]; time 2 days
  fraction released: 0.2916
[1]; time 4 days
  fraction released: 0.6116
[1]; time 8 days
  fraction released: 0.9528

## COC1C=CC=C(C)C(=O)NC2=CC(=O)C(NCCO)=C(CC(C)CC(OC)C(O)C(C)C=C(C)C1OC(N)=O)C2=O (stereo not shown) [17-hydroxyethylamino-17-demethoxygeldanamycin, reference compound]
[3]
  IC50: 73 nM

## COC1=C2C[C@@H](C)C[C@H](OC)[C@H](O)[C@@H](C)/C=C(\C)[C@H](OC(N)=O)[C@@H](OC)/C=C\C=C(/C)C(=O)NC(=CC1=O)C2=O [Geldanamycin]
[3]; Homo sapiens, 96 h
  IC50: 5 nM
[4]
  increase in solubility: 300 fold
[5]
  water solubility: ~1.5 µg/mL (≈ 2.68 µM)
[6]
  dose limiting severe hepatotoxicity: 4 mg/kg
[7]
  MTD dog: < 100 mg/m^2
physchem
  chromatographic logP: ~2.77

## CC(=O)O[C@H]1C(=O)[C@@]2(C)[C@H]([C@H](OC(=O)c3ccccc3)[C@]3(O)C[C@H](OC(=O)[C@H](O)[C@@H](NC(=O)c4ccccc4)c4ccccc4)C(C)=C1C3(C)C)[C@]1(OC(C)=O)CO[C@@H]1C[C@@H]2O [Paclitaxel, reference compound]
[8]
  Solubilized: <0.2 mg/mL
  prodrug:caprolactone: <1 mmol:mol
physchem; pH 7
  chromatographic logP: 4.4 ± 0.06

## CCCCCC(=O)O[C@H]1C[C@H]2OC[C@@]2(OC(C)=O)[C@H]2[C@H](OC(=O)c3ccccc3)[C@]3(O)C[C@H](OC(=O)[C@H](O)[C@@H](NC(=O)c4ccccc4)c4ccccc4)C(C)=C([C@@H](OC(C)=O)C(=O)[C@]12C)C3(C)C [Prodrug 4a]
[8]
  Solubilized: 1.55 ± 0.04 mg/mL
  prodrug w/w %: 17.1%
  prodrug:caprolactone: 36.5 mmol:mol
  Diameter (intensity): 34 ± 4 nm
  Solubilized (in parentheses): 5.1 ± 0.5 mg/mL
[2]
  log Po/w: 4.43 ± 0.06

## CCCCCCCCCCCC(=O)O[C@H]1C[C@H]2OC[C@@]2(OC(C)=O)[C@H]2[C@H](OC(=O)c3ccccc3)[C@]3(O)C[C@H](OC(=O)[C@H](O)[C@@H](NC(=O)c4ccccc4)c4ccccc4)C(C)=C([C@@H](OC(C)=O)C(=O)[C@]12C)C3(C)C [Prodrug 4b]
[8]
  Solubilized: 1.47 ± 0.03 mg/mL
  prodrug w/w %: 16.4%
  prodrug:caprolactone: 31.8 mmol:mol
  Diameter (intensity): 27 ± 5 nm
  Solubilized (in parentheses): 2.2 ± 0.5 mg/mL
[2]
  log Po/w: 4.59 ± 0.18

## CCCCCCCCCCCCCCCC(=O)O[C@H]1C[C@H]2OC[C@@]2(OC(C)=O)[C@H]2[C@H](OC(=O)c3ccccc3)[C@]3(O)C[C@H](OC(=O)[C@H](O)[C@@H](NC(=O)c4ccccc4)c4ccccc4)C(C)=C([C@@H](OC(C)=O)C(=O)[C@]12C)C3(C)C [Prodrug 4c, 7-palmitate-paclitaxel]
[8]
  Solubilized: 1.62 ± 0.03 mg/mL
  prodrug w/w %: 21.6%
  prodrug:caprolactone: 33.3 mmol:mol
  Diameter (intensity): 44 ± 2 nm
  Solubilized (in parentheses): 3.0 ± 0.9 mg/mL
[2]
  log Po/w: 4.48 ± 0.06

## CCCCCC(=O)O[C@@H](C(=O)O[C@H]1C[C@@]2(O)[C@@H](OC(=O)c3ccccc3)[C@@H]3[C@]4(OC(C)=O)CO[C@@H]4C[C@H](O)[C@@]3(C)C(=O)[C@H](OC(C)=O)C(=C1C)C2(C)C)[C@@H](NC(=O)c1ccccc1)c1ccccc1 [Prodrug 5a]
[8]
  Solubilized: 1.42 ± 0.11 mg/mL
  prodrug w/w %: 17.8%
  prodrug:caprolactone: 33.4 mmol:mol
  Diameter (intensity): 32 ± 0 nm
  Solubilized (in parentheses): > 3 mg/mL
[2]
  log Po/w: 4.45 ± 0.03

## CCCCCCCCCCCC(=O)OC(C(=O)OC1CC2(O)C(OC(=O)c3ccccc3)C3C4(OC(C)=O)COC4CC(O)C3(C)C(=O)C(OC(C)=O)C(=C1C)C2(C)C)C(NC(=O)c1ccccc1)c1ccccc1 (stereo not shown) [Prodrug 5b]
[8]
  Solubilized: 1.57 ± 0.02 mg/mL
  prodrug w/w %: 17.3%
  prodrug:caprolactone: 34.0 mmol:mol
  Diameter (intensity): 28 ± 0 nm
  Solubilized (in parentheses): > 3 mg/mL
[2]
  log Po/w: 4.49 ± 0.03

## CCCCCCCCCCCCCCCC(=O)O[C@@H](C(=O)O[C@H]1C[C@@]2(O)[C@@H](OC(=O)c3ccccc3)[C@@H]3[C@]4(OC(C)=O)CO[C@@H]4C[C@H](O)[C@@]3(C)C(=O)[C@H](OC(C)=O)C(=C1C)C2(C)C)[C@@H](NC(=O)c1ccccc1)c1ccccc1 [Prodrug 5c, 2-palmitate-paclitaxel]
[8]
  Solubilized: 1.85 ± 0.05 mg/mL
  prodrug w/w %: 19.8%
  prodrug:caprolactone: 40.0 mmol:mol
  Diameter (intensity): 37 ± 6 nm
  Solubilized (in parentheses): > 3 mg/mL
[2]
  log Po/w: 4.51 ± 0.04

## C=CCNC1=C2C[C@@H](C)C[C@H](OC)[C@H](O)[C@@H](C)/C=C(\C)[C@H](OC(N)=O)[C@@H](OC)/C=C\C=C(/C)C(=O)NC(=CC1=O)C2=O [Prodrug 17-AAG]
[9]; Phase I
  dose limiting toxicity: GI toxicity to be dose limiting
[9]; from Phase I results
  suggested Phase II dosing: 40 mg/m^2
[7]; in vivo
  MTD dog: 500 mg/m^2

## CO[C@H]1/C=C\C=C(/C)C(=O)NC2=CC(=O)C(NCCN(C)C)=C(C[C@@H](C)C[C@H](OC)[C@H](O)[C@@H](C)/C=C(\C)[C@@H]1OC(N)=O)C2=O [Prodrug 17DMAG]
[7]
  MTD dog: 8 mg/m^2
